Laboratory results reported in US10597388B2, “Pyridazinone herbicides” (FMC CORPORATION, priority 2014, dated 2020).

What was measured:
Assay type in all cases: in vivo
[1] = test system: barnyardgrass (Echinochloa crus-galli); assay: Test A greenhouse herbicide test, pre- and postemergence
Method in brief: (§1)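 Visual injury ratings, 0 (no effect) to 100 (complete control), versus untreated plants after roughly 10 d in a greenhouse. Compounds, formulated in a surfactant-containing non-phytotoxic solvent, were sprayed on loam–sand soil after sowing (pre) or on one- to two-leaf plants 2–10 cm tall (post).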

corn (Zea mays) = assay: as above; conditions: Postemergence; for Corn plant response rating: 0 to 100 scale, 0 is no effect, 100 is complete control
Method in brief: as §1

[2] = test system: foxtail, giant (giant foxtail, Setaria faberii); assay: as above
Method in brief: as §1

kochia (Kochia scoparia) [3] = assay: as above
Method in brief: as §1

[4] = test system: pigweed (Amaranthus retroflexus); assay: as above
Method in brief: as §1

[5] = test system: ragweed (common ragweed, Ambrosia elatior); assay: as above
Method in brief: as §1

[6] = test system: wheat (Triticum aestivum); assay: as above; conditions: Postemergence; for Wheat plant response rating: 0 to 100 scale, 0 is no effect, 100 is complete control
Method in brief: as §1

[7] = test system: chickweed (common chickweed, Stellaria media); assay: Test C greenhouse herbicide test, postemergence
Method in brief: (§2)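 Plants grown in potting mix of peat moss, vermiculite, wetting agent and starter nutrients were sprayed postemergence at 2 to 18 cm height (1- to 4-leaf stage). After 13 to 15 d in the greenhouse, injury was visually rated against untreated controls on a 0–100 scale (0 no effect, 100 complete control).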

kochia (Kochia scoparia) [8] = assay: Test C greenhouse herbicide test, postemergence
Method in brief: as §2

[9] = test system: oat, wild (wild oat, Avena fatua); assay: Test C greenhouse herbicide test, postemergence
Method in brief: as §2

[10] = Postemergence, 125 g ai/ha, visual rating after approx. 10 d, 0 to 100 scale (0 no effect, 100 complete control)
[11] = Postemergence, 500 g ai/ha, 0 to 100 scale, 0 is no effect, 100 is complete control
[12] = Preemergence, 125 g ai/ha, 0 to 100 scale where 0 is no effect and 100 is complete control
[13] = Preemergence, 500 g ai/ha, 0 to 100 scale, 0 no effect, 100 complete control
[14] = 125 g ai/ha, visual rating after approx. 10 d, 0 to 100 scale (0 no effect, 100 complete control)
[15] = Postemergence, 31 g ai/ha, 0 to 100 scale (0 no effect, 100 complete control)
[16] = Postemergence, 125 g ai/ha, scale 0 to 100, 0 is no effect, 100 is complete control
[17] = Postemergence, 250 g ai/ha, scale 0 to 100, 0 no effect, 100 complete control, 13 to 15 d
[18] = postemergence, 62 g ai/ha, scale 0 to 100, 0 no effect, 100 complete control
[19] = Postemergence, 125 g ai/ha, 0 to 100 scale where 0 is no effect and 100 is complete control
[20] = 125 g ai/ha, 0 to 100 scale where 0 is no effect and 100 is complete control
[21] = Preemergence, 500 g ai/ha, 0 to 100 scale where 0 is no effect and 100 is complete control
[22] = 500 g ai/ha, visual rating after approx. 10 d, 0 to 100 scale (0 no effect, 100 complete control)
[23] = Postemergence, 500 g ai/ha, visual rating after approx. 10 d, 0 to 100 scale (0 no effect, 100 complete control)
[24] = Postemergence, 31 g ai/ha, scale 0 to 100 (0 no effect, 100 complete control)

Cc1nn(C)c(=O)c(-c2c(C)sc3ccc(Br)cc23)c1O [Compound 22]
10: Barnyardgrass plant response rating [1, 12]
100: Plant response rating, Kochia (kochia (Kochia scoparia) [3]; [10]) | Kochia plant response rating (kochia (Kochia scoparia) [3]; [11]) | Plant response rating, Kochia (kochia (Kochia scoparia) [3]; [13]) | Plant response rating, Pigweed [4, 10] | Pigweed plant response rating [4, 11] | Pigweed plant response rating [4, 12] | Plant response rating, Pigweed [4, 13] | Ragweed plant response rating [5, 11]
80: Plant response rating, Oat, Wild [9, 16] | Plant response rating, Oat, Wild [9, 17]
60: Plant response rating, Foxtail, Giant [2, 10]
98: Plant response rating, Chickweed [7, 17]
0: Plant response rating, Corn (corn (Zea mays); [14]) | Corn plant response rating (corn (Zea mays); 500 g ai/ha) | Plant response rating, Wheat [6, 14] | Wheat plant response rating ([6]; 500 g ai/ha)
50: Barnyardgrass plant response rating [1, 11] | Oat, Wild plant response rating [9, 18]
30: Plant response rating, Barnyardgrass [1, 10]
90: Foxtail, Giant plant response rating [2, 11] | Plant response rating, Foxtail, Giant [2, 13] | Plant response rating, Ragweed [5, 10] | Ragweed plant response rating [5, 12] | Plant response rating, Ragweed [5, 13] | Chickweed plant response rating [7, 15] | Chickweed plant response rating [7, 18] | Kochia plant response rating (kochia (Kochia scoparia) [8]; [15])
95: Plant response rating, Chickweed [7, 16] | Plant response rating, Kochia (kochia (Kochia scoparia) [8]; [16]) | Plant response rating, Kochia (kochia (Kochia scoparia) [8]; [17]) | Kochia plant response rating (kochia (Kochia scoparia) [8]; [18])
40: Oat, Wild plant response rating [9, 15]
70: Plant response rating, Barnyardgrass [1, 13] | Foxtail, Giant plant response rating [2, 12] | Kochia plant response rating (kochia (Kochia scoparia) [3]; [12])

CCc1sc2ccc(C)cc2c1-c1c(O)c(C)nn(C)c1=O [Compound 47]
30: Plant response rating, Oat, Wild [9, 16]
70: Barnyardgrass plant response rating [1, 12] | Foxtail, Giant plant response rating [2, 12] | Pigweed plant response rating [4, 12]
10: Corn plant response rating (corn (Zea mays); 500 g ai/ha) | Kochia plant response rating (kochia (Kochia scoparia) [3]; [12]) | Oat, Wild plant response rating [9, 18]
100: Plant response rating, Pigweed [4, 19] | Pigweed plant response rating [4, 11] | Plant response rating, Pigweed [4, 13] | Plant response rating, Ragweed [5, 19] | Ragweed plant response rating [5, 11]
80: Barnyardgrass plant response rating [1, 11] | Plant response rating, Foxtail, Giant [2, 19] | Foxtail, Giant plant response rating [2, 11] | Plant response rating, Foxtail, Giant [2, 13] | Ragweed plant response rating [5, 12]
0: Plant response rating, Corn (corn (Zea mays); [20]) | Plant response rating, Wheat [6, 20] | Wheat plant response rating ([6]; 500 g ai/ha)
75: Kochia plant response rating (kochia (Kochia scoparia) [8]; [15])
90: Plant response rating, Barnyardgrass [1, 13] | Plant response rating, Kochia (kochia (Kochia scoparia) [3]; [19]) | Kochia plant response rating (kochia (Kochia scoparia) [3]; [11]) | Plant response rating, Kochia (kochia (Kochia scoparia) [3]; [13]) | Plant response rating, Ragweed [5, 13] | Chickweed plant response rating [7, 15] | Chickweed plant response rating [7, 18] | Kochia plant response rating (kochia (Kochia scoparia) [8]; [18])
40: Plant response rating, Barnyardgrass [1, 19]
98: Plant response rating, Chickweed [7, 16] | Plant response rating, Chickweed [7, 17] | Plant response rating, Kochia (kochia (Kochia scoparia) [8]; [17])
5: Oat, Wild plant response rating [9, 15]
95: Plant response rating, Kochia (kochia (Kochia scoparia) [8]; [16])
50: Plant response rating, Oat, Wild [9, 17]

CCCC(=O)Oc1c(C)nn(C)c(=O)c1-c1c(C)sc2ccc(C)cc12 [Compound 105]
0: Plant response rating, Corn (corn (Zea mays); [20]) | Plant response rating, Wheat [6, 20]
95: Chickweed plant response rating [7, 18] | Plant response rating, Kochia (kochia (Kochia scoparia) [8]; [24]) | Plant response rating, Kochia (kochia (Kochia scoparia) [8]; [16])
70: Plant response rating, Foxtail, Giant [2, 19]
90: Barnyardgrass plant response rating [1, 11] | Plant response rating, Foxtail, Giant [2, 23] | Foxtail, Giant plant response rating [2, 12] | Plant response rating, Kochia (kochia (Kochia scoparia) [3]; [19]) | Plant response rating, Kochia (kochia (Kochia scoparia) [3]; [23]) | Plant response rating, Pigweed [4, 19] | Plant response rating, Pigweed [4, 23] | Plant response rating, Ragweed [5, 19] | Plant response rating, Chickweed [7, 24] | Plant response rating, Oat, Wild [9, 16] | Plant response rating, Oat, Wild [9, 17]
50: Plant response rating, Barnyardgrass [1, 19]
98: Plant response rating, Chickweed [7, 16]
20: Barnyardgrass plant response rating [1, 12] | Plant response rating, Wheat [6, 22]
30: Plant response rating, Corn (corn (Zea mays); [22])
100: Plant response rating, Barnyardgrass [1, 21] | Plant response rating, Foxtail, Giant [2, 21] | Kochia plant response rating (kochia (Kochia scoparia) [3]; [12]) | Plant response rating, Kochia (kochia (Kochia scoparia) [3]; [21]) | Pigweed plant response rating [4, 12] | Plant response rating, Pigweed [4, 21] | Plant response rating, Ragweed [5, 23] | Ragweed plant response rating [5, 12] | Plant response rating, Ragweed [5, 21] | Plant response rating, Chickweed [7, 17] | Plant response rating, Kochia (kochia (Kochia scoparia) [8]; [17])
60: Plant response rating, Oat, Wild [9, 24]

Cc1cc(C)c2ccccc2c1-c1c(O)c(C)nn(C)c1=O [Compound 21]
98: Plant response rating, Oat, Wild [9, 16] | Oat, Wild plant response rating [9, 18]
90: Plant response rating, Barnyardgrass [1, 10] | Barnyardgrass plant response rating [1, 11] | Barnyardgrass plant response rating [1, 12] | Foxtail, Giant plant response rating [2, 12] | Plant response rating, Kochia (kochia (Kochia scoparia) [3]; [13]) | Kochia plant response rating (kochia (Kochia scoparia) [8]; [18]) | Oat, Wild plant response rating [9, 15]
10: Plant response rating, Wheat [6, 14]
50: Plant response rating, Corn (corn (Zea mays); [14])
80: Kochia plant response rating (kochia (Kochia scoparia) [8]; [15])
100: Plant response rating, Barnyardgrass [1, 13] | Plant response rating, Foxtail, Giant [2, 10] | Foxtail, Giant plant response rating [2, 11] | Plant response rating, Foxtail, Giant [2, 13] | Plant response rating, Kochia (kochia (Kochia scoparia) [3]; [10]) | Kochia plant response rating (kochia (Kochia scoparia) [3]; [11]) | Plant response rating, Pigweed [4, 10] | Pigweed plant response rating [4, 11] | Pigweed plant response rating [4, 12] | Plant response rating, Pigweed [4, 13] | Plant response rating, Ragweed [5, 10] | Ragweed plant response rating [5, 11] | Ragweed plant response rating [5, 12] | Plant response rating, Ragweed [5, 13] | Plant response rating, Chickweed [7, 16] | Plant response rating, Chickweed [7, 17] | Chickweed plant response rating [7, 18] | Plant response rating, Kochia (kochia (Kochia scoparia) [8]; [17]) | Plant response rating, Oat, Wild [9, 17]
60: Corn plant response rating (corn (Zea mays); 500 g ai/ha) | Wheat plant response rating ([6]; 500 g ai/ha)
95: Chickweed plant response rating [7, 15] | Plant response rating, Kochia (kochia (Kochia scoparia) [8]; [16])
30: Kochia plant response rating (kochia (Kochia scoparia) [3]; [12])

Cc1nn(C)c(=O)c(-c2ccc(F)c3ccccc23)c1O [Compound 41]
100: Foxtail, Giant plant response rating [2, 11] | Plant response rating, Kochia (kochia (Kochia scoparia) [3]; [19]) | Kochia plant response rating (kochia (Kochia scoparia) [3]; [11]) | Plant response rating, Kochia (kochia (Kochia scoparia) [3]; [13]) | Pigweed plant response rating [4, 12] | Plant response rating, Pigweed [4, 13] | Ragweed plant response rating [5, 11] | Plant response rating, Chickweed [7, 17] | Kochia plant response rating (kochia (Kochia scoparia) [8]; [15]) | Plant response rating, Kochia (kochia (Kochia scoparia) [8]; [16]) | Plant response rating, Kochia (kochia (Kochia scoparia) [8]; [17]) | Kochia plant response rating (kochia (Kochia scoparia) [8]; [18])
55: Oat, Wild plant response rating [9, 15]
20: Barnyardgrass plant response rating [1, 12] | Plant response rating, Corn (corn (Zea mays); [20])
60: Plant response rating, Pigweed [4, 19]
70: Corn plant response rating (corn (Zea mays); 500 g ai/ha) | Plant response rating, Foxtail, Giant [2, 19] | Foxtail, Giant plant response rating [2, 12] | Plant response rating, Ragweed [5, 19]
95: Chickweed plant response rating [7, 15] | Chickweed plant response rating [7, 18] | Plant response rating, Oat, Wild [9, 17]
0: Plant response rating, Wheat [6, 20]
30: Plant response rating, Barnyardgrass [1, 19]
90: Barnyardgrass plant response rating [1, 11] | Plant response rating, Barnyardgrass [1, 13] | Plant response rating, Foxtail, Giant [2, 13] | Kochia plant response rating (kochia (Kochia scoparia) [3]; [12]) | Pigweed plant response rating [4, 11] | Plant response rating, Ragweed [5, 13] | Plant response rating, Chickweed [7, 16] | Plant response rating, Oat, Wild [9, 16] | Oat, Wild plant response rating [9, 18]
80: Ragweed plant response rating [5, 12] | Wheat plant response rating ([6]; 500 g ai/ha)
